In series [1] the test system is Hepatitis C virus. Description: Antiviral activity against HCV genotype 2a JFH/JC1 infected in human Huh7.5 cells assessed as inhibition of viral RNA replication after 72 hrs by qRT-PCR analysis. Type of series: functional, organism-based, Hepacivirus hominis. Conditions: subtype 2a JFH/JC1, Huh7.5, 72 h.
Series [2] can be described thus: Cytotoxicity against human Huh7.5 cells after 72 hrs by MTT assay. Type of series: cell-based.
The subject of series [3] is Hepatitis C virus. The experiment in a line: Antiviral activity against HCV pseudoparticles infected in human Huh7.5 cells infected with HCV pseudoparticles expressed in 293T cells with plasmid encoding HCV E1, E2, envelope and Vpr deficient HIV vector carrying luciferase reporter gene inserted into Nef position assessed as inhibition of pseudoparticle entry after 72 hrs by luciferase reporter gene assay. The note with it: for inhibition: Hepacivirus hominis. The class given is functional, organism-based, Hepacivirus hominis.

Series [4] in a line: Selectivity index, ratio of CC50 for human Huh7.5 cells to EC50 for antiviral activity against HCV genotype 2a JFH/JC1 infected in human Huh7.5 cells. The class given is toxicity, cell-based. The note with it: read-out: Ratio CC50/EC50.
In series [5] the target is T1, CD81 antigen (Homo sapiens, UniProt P60033).
T1 sequence (P60033 whole entry): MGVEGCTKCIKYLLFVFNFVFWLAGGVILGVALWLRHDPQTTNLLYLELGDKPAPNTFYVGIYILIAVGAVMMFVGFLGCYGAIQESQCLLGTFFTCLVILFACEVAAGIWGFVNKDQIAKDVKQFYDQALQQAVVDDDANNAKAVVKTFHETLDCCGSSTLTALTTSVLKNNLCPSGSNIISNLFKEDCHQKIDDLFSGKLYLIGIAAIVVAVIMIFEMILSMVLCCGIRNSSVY
The experiment in a line: Binding affinity to CD81 (unknown origin) by surface plasmon resonance assay.

Series [6] concerns the target T2, CD81 antigen (Homo sapiens) (UniProt P60033).
T2 sequence (whole entry): T1 sequence (P60033 whole entry)
Description: Binding affinity to CD81 (unknown origin) assessed as disruption of interaction between CD81 the HCV envelope protein E2 at 5 uM by surface plasmon resonance assay relative to untreated control.

For series [7], the target named is T2, CD81 antigen (Homo sapiens). The experiment in a line: Binding affinity to CD81 (unknown origin) assessed as association rate constant by surface plasmon resonance assay.

Four compounds from ChEMBL document CHEMBL4330116, “Harzianoic acids A and B, new natural scaffolds with inhibitory effects against hepatitis C virus” (Bioorg Med Chem, 2019) can be followed below.

Each structure is given as a SMILES string. Where only a bound is given, the exact number is not on record here.

With `CC(=O)[C@@H]1C[C@H](C(=O)O)[C@@]1(C)CC/C=C(\C)C(=O)O`, in series [1], the EC50 stood at 24.5 µM. In series [2], this compound gave a cytotoxic concentration (CC50) at 72 h of 75.3 µM. For the same compound, in series [3], the IC50 came out at 35.5 µM and the inhibition entry is “Dose-dependent effect”. Moreover, the selectivity ratio in series [4] stood at 3. For the same compound, in series [5], the Kd came to 0.0378 µM. The Ratio in series [6] amounted to 33. Besides, the Ka in series [7] was 5.33e+06 M⁻¹ s⁻¹.
As to `CC(C)OC(=O)[C@H](C)NP(=O)(OC[C@H]1O[C@@H](n2ccc(=O)[nH]c2=O)[C@](C)(F)[C@@H]1O)Oc1ccccc1` (stereo not given in full), the EC50 in series [1] turned out to be 0.06 µM. This compound registered a half-maximal cytotoxic concentration (CC50) at 72 h in series [2] greater than 200 µM. Moreover, the selectivity ratio in series [4] was greater than 3120.
In series [2], `CCC[C@H](NC(=O)[C@@H]1[C@H]2CCC[C@H]2CN1C(=O)[C@@H](NC(=O)[C@@H](NC(=O)c1cnccn1)C1CCCCC1)C(C)(C)C)C(=O)C(=O)NC1CC1` [TELAPREVIR] returned a 50% cytotoxic concentration (CC50) at 72 h of 26.5 µM. Besides, the selectivity ratio in series [4] is 491.
Consider `C/C(=C\CC[C@]1(C)[C@@H](C(=O)O)C[C@H]1[C@](C)(O)C(=O)O)C(=O)O`, for which, in series [1], the EC50 stood at 20.4 µM. The compound further came in with a cytotoxic concentration (CC50) at 72 h in series [2] of 74.3 µM. In series [3], the IC50 amounted to 42.9 µM and the inhibition result is “Dose-dependent effect”. The selectivity ratio in series [4] stood at 4. In series [5], this compound gave a Kd of 0.0665 µM. Also, the Ka in series [7] is 3.81e+07 M⁻¹ s⁻¹.
